The source of these data is patent publication US20230295571A1, “COMPOSITIONS AND METHODS FOR STEM CELL CHONDROGENESIS” (Washington University, priority 2020, published 2023).

Molecules are shown by their SMILES.

Common to all, as to assay type: cell-based, human
The subject of experiment [1] is hiPSC chondrogenic pellets. The experiment is described as follows: Safranin-O histology of hiPSC chondrogenic pellets. Here is the method:
Chondrogenic differentiation. Cells dissociated at the Cp stage were resuspended at 5×10^5 cells per mL in chondrogenic medium consisting of DMEM/F-12, 1% FBS, 1% ITS+, 55 μM β-mertcaptoethanol, 100 nM dexamethasone (DEX; Sigma-Aldrich, #D4902), 1% NEAA (Gibco, #11140050), 1% P/S, 10 ng ml^−1 human transforming growth factor-beta 3 (TGF-β3; R&D Systems, #243-B3-010), 50 μg ml^−1 L-ascorbic acid 2-phosphate (ascorbate; Sigma-Aldrich, #A8960), and 40 μg ml^−1 L-Proline (proline; Sigma-Aldrich, #P5607). Cells were then centrifuged for 5 min at 300×g to form a pellet. Chondrogenic pellets were cultured at 37° C. for up to the timepoints required for various experiments.
WNT-C59 and ML329 treatment for WNT and MITF inhibition. For WNT-C59 treatment for WNT inhibition during chondrogenesis, pellets were treated with either 10 ng ml^−1 TGF-β3 (control group) or a combination of 10 ng ml^−1 TGF-β3 and 1 μM WNT-C59 in a chondrogenic medium from d0 to d42 as appropriate. For WNT-C59 and ML329 treatment (ML, Axon Medchem, HY-101464) for WNT and MITF inhibition during chondrogenesis, pellets were treated with either 10 ng ml^−1 TGF-β3 (control group), a combination of 10 ng ml^−1 TGF-β3 and 1 μM ML, a combination of 10 ng ml^−1 TGF-β3 and 1 μM WNT-C59, or a combination of 10 ng ml^−1 TGF-β3, 1 μM ML and 1 μM WNT-C59 in chondrogenic medium from d0 to d42 as appropriate. […]

The subject of experiment [2] is WNT2B, WNT3A, WNT4, WNT5B, WNT7B. Briefly: Western blots of WNT proteins in d28 pellets. Here is the method:
Western blots. To examine the effect of WNT-C59 on WNT inhibition in the pellets at protein levels, Western blot analysis was performed on d28 pellets with or without WNT-C59 treatments. Six to eight pellets per experimental group were pooled and digested with 0.04% Type II collagenase solution in DMEM/F12 for 1 h. Cells were washed once with PBS and lysed in RIPA buffer (Cell Signaling Technology, #9806S) with protease inhibitor (ThermoFisher, #87786) and phosphatase inhibitor (Santa Cruz Biotechnology, #sc-45044). Protein concentration was measured using the BCA Assay (Pierce). Ten micrograms of proteins for each well were separated on 10% sodium dodecyl sulfate-polyacrylamide gel electrophoresis gels with prestained molecular weight markers (Bio-Rad, 161-0374) and transferred to a polyvinylidene fluoride (PVDF) membrane. The PVDF membrane blots were incubated overnight at 4° C. with the following primary antibodies: anti-WNT2B (1:350, Abcam, ab178418), anti-WNT3A (1:1000, Abcam, ab81614), anti-WNT4 (1:500, Abcam, ab91226), anti-WNTSB (1:500, Abcam, ab93134), anti-WNT7B (1:2000, Abcam, ab155313) and anti-GAPDH (1:30000, Proteintech 60004-1-Ig) for loading control, respectively. […] Immunoblots were imaged and analyzed using the iBright FL1000 Imaging System (Thermo Fisher). […]
Background: A western blot detects proteins with antibodies after separation by electrophoresis.

For experiment [3], the system named is hiPSC chondrogenic pellets. Briefly: Immunohistochemistry of collagens in pellets. The settings on record: pellet culture. Here is the method:
WNT ligands treatment during chondrogenesis. For WNT ligands treatment during chondrogenesis, pellets were treated with either 10 ng ml^−1 TGF-β3 (control group) or a combination of 10 ng ml^−1 TGF-β3 and 100 ng ml^−1 individual WNT ligand (WNT2B, WNT3A, WNT4, WNT5B, or WNT7B, all from R&D system) in chondrogenic medium from d0 to d42 as appropriate. For WNT ligands treatment during the Cp stage, cells were supplemented with either 20 ng ml^−1 BMP4 (R&D Systems, #314-BP-010) alone (control group), a combination of 20 ng ml^−1 BMP4 and 1 μM WNT-059, or a combination of 20 ng ml^−1 BMP4 and 100 ng ml^−1 WNT3A (R&D Systems, #5036-WN-010) in mesodermal differentiation medium from d7 to d12.
Immunohistochemistry. Histologic sections (8 μm thick) of the pellets were rinsed with xylenes three times and rehydrated before labeling. Antigen retrieval was performed with 0.02% proteinase K for 3 min at 37° C. for COL2A1 and COL6A1 and with pepsin for 5 min at room temperature for COL1A1 and COL10A1 followed by peroxidase quench then serum blocking for 30 min at room temperature. […]

Turning to `Cc1cc(-c2ccc(CC(=O)Nc3ccc(-c4cccnc4)cc3)cc2)ccn1` [WNT-C59], in experiment [1] (WNT-C59 at Cp stage), the “chondrogenesis when WNTs inhibited at the Cp stage” value is listed as “severely impaired”. Also, the “chondrocyte homogeneity (Saf-O staining)” value in experiment [1] (treatment during pellet culture, vs standard TGF-β3) is listed as “increased”. Also, in experiment [2], the WNT5B protein result was “only moderately inhibited”; the “protein levels of WNT2B, WNT3A, WNT4, and WNT7B” value is reported as “decreased”. Besides, the “COL1A1 and COL10A1 staining/production” value in experiment [3] is on record as “low”.
